The results in this text go back to patent publication US9850225B2, “Compounds useful as immunomodulators” (BRISTOL-MYERS SQUIBB COMPANY, priority 2014, dated 2017).

Structures are written as SMILES.

The test has as its target PD-1/PD-L1 interaction (PD-1-Ig / PD-L1-His) (Homo sapiens (Human), UniProt Q9NZQ7). As to the kind of experiment: PD-1/PD-L1 Homogenous Time-Resolved Fluorescence (HTRF) binding assay. The settings on record: PD-1/PD-L1 HTRF binding assay; value given as range class; read-out: Range or IC50. A digest of the protocol:
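HTRF detection used 1 nM europium-cryptate anti-Ig and 20 nM APC anti-His. Compounds first saw 10 nM PD-L1-His for 15 min, and 20 nM PD-1-Ig was then added for another 15 min. Buffer was dPBS plus 0.1% BSA and 0.05% Tween-20. All concentrations are final.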

Sequence of PD-1/PD-L1 interaction (PD-1-Ig / PD-L1-His) (Q9NZQ7 other isoform, or with tags, fused parts or gaps): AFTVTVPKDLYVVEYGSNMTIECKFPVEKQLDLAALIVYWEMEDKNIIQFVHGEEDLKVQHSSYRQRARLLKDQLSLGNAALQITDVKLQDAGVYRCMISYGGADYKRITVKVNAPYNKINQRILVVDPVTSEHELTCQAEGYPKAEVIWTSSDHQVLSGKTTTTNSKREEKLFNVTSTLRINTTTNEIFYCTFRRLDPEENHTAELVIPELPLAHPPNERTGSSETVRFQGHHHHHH

A word on the IC50: it is the midpoint of a concentration-inhibition curve. With `CC(=O)NCCNCc1ccc(OCc2cccc(-c3ccccc3)c2C)cc1OCc1cccc(Cl)c1` [Example 1054, N-(2-((2-((3-chlorobenzyl)oxy)-4-((2-methyl-[1,1′-biphenyl]-3-yl)methoxy)benzyl)amino)ethyl)acetamide], the IC50 fell in the range of 0.1 to 20 µM.

For `CC(=O)NCCNCc1ccc(OCc2cccc(-c3ccccc3)c2C)cc1OCc1ccc(C(N)=O)cc1` [Example 1039], the IC50 is 0.1 to 20 µM.

Take `CC(=O)NCCNCc1ccc(OCc2cccc(-c3ccccc3)c2C)cc1OCc1cc(F)ccc1F` [Example 1060, N-(2-((2-((2,5-difluorobenzyl)oxy)-4-((2-methyl-[1,1′-biphenyl]-3-yl)methoxy)benzyl)amino)ethyl)acetamide]: the IC50 was 0.1 to 20 µM.

For `Cc1c(COc2cc(OCc3cccc(S(C)(=O)=O)c3)c(CN[C@@](C)(CO)C(=O)O)cc2Cl)cccc1-c1ccc2c(c1)OCCO2` [Example 3021, (S)-2-((5-chloro-4-((3-(2,3-dihydrobenzo[b][1,4]dioxin-6-yl)-2-methylbenzyl)oxy)-2-((3-(methylsulfonyl)benzyl)oxy)benzyl)amino)-3-hydroxy-2-methylpropanoic acid], the IC50 was in the range of 0.0006 to 0.01 µM.

`COc1cc(F)cc(COc2cc(OCc3cccc(-c4ccccc4)c3C)ccc2CNCCNC(C)=O)c1` [Example 1096, N-(2-((2-((3-fluoro-5-methoxybenzyl)oxy)-4-((2-methyl-[1,1′-biphenyl]-3-yl)methoxy)benzyl)amino)ethyl)acetamide]: the IC50 was 0.1 to 20 µM.

Turning to `Cc1cc(OCc2cccc(-c3ccc4c(c3)OCCO4)c2C)cc(OCc2cccc(C#N)c2)c1CN[C@H](CO)C(=O)O` [Example 1002, (R)-2-(2-(3-cyanobenzyloxy)-4-(3-(2,3-dihydrobenzo[b][1,4]dioxin-6-yl)-2-methylbenzyloxy)-6-methylbenzylamino)-3-hydroxypropanoic acid], the half-maximal inhibitory concentration (IC50) lay in the range of 0.0006 to 0.01 µM.

As for `CC(=O)NCCNCc1ccc(OCc2cccc(-c3ccccc3)c2C)cc1OCc1ccc2c(cnn2C2CCCCO2)c1` (stereo not shown) [Example 1099, N-(2-((4-((2-methyl-[1,1′-biphenyl]-3-yl)methoxy)-2-((1-(tetrahydro-2H-pyran-2-yl)-1H-indazol-5-yl)methoxy)benzyl)amino)ethyl)acetamide], the IC50 fell in the range of 0.1 to 20 µM.

Take `Cc1c(COc2ccc(CN[C@H](CO)C(=O)O)c(OCc3cccc(C#N)c3)c2Cl)cccc1-c1ccc2c(c1)OCCO2` [Example 1235, (R)-2-((3-chloro-2-((3-cyanobenzyl)oxy)-4-((3-(2,3-dihydrobenzo[b][1,4]dioxin-6-yl)-2-methylbenzyl)oxy)benzyl)amino)-3-hydroxypropanoic acid]: the IC50 lay within 0.1 to 20 µM.

Consider `COC(=O)CCCOc1cc(OCc2cccc(-c3ccccc3)c2C)ccc1CNCCNC(C)=O` [Example 1036, methyl 4-(2-(((2-acetamidoethyl)amino)methyl)-5-((2-methyl-[1,1′-biphenyl]-3-yl)methoxy)phenoxy)butanoate], for which the IC50 was 0.1 to 20 µM.

Consider `CC(=O)NCCNCc1ccc(OCc2cccc(-c3ccccc3)c2C)cc1OCC(N)=O` [Example 1031, 2-(2-(((2-acetamidoethyl)amino)methyl)-5-((2-methyl-[1,1′-biphenyl]-3-yl)methoxy)phenoxy)acetamide], for which the IC50 is 0.1 to 20 µM.

As to `CC(=O)NCCNCc1ccc(OCc2cccc(-c3ccccc3)c2C)cc1OCc1cccc(-n2cccc2)c1` [Example 1112, N-(2-((2-((3-(1H-pyrrol-1-yl)benzyl)oxy)-4-((2-methyl-[1,1′-biphenyl]-3-yl)methoxy)benzyl)amino)ethyl)acetamide], the IC50 is 0.1 to 20 µM.

In the case of `CC(=O)NCCNCc1ccc(OCc2cccc(-c3ccccc3)c2C)cc1OCc1ccc(C)cc1` [Example 1047, N-(2-((4-((2-methyl-[1,1′-biphenyl]-3-yl)methoxy)-2-((4-methylbenzyl)oxy)benzyl)amino)ethyl)acetamide], the IC50 was 0.1 to 20 µM.

For the compound `Cc1cc(CN[C@@H](CO)C(=O)O)c(OCc2cncc(C#N)c2)cc1OCc1cccc(-c2ccc3c(c2)OCCO3)c1C` [Example 1284, (S)-2-(2-((5-cyanopyridin-3-yl)methoxy)-4-(3-(2,3-dihydrobenzo[b][1,4]dioxin-6-yl)-2-methylbenzyloxy)-5-methylbenzylamino)-3-hydroxypropanoic acid], the IC50 was in the range of 0.0006 to 0.01 µM.

`Cc1c(COc2cc(OCc3cncc(C#N)c3)c(CN[C@H](CC(=O)O)C(=O)O)cc2Cl)cccc1-c1ccc2c(c1)OCCO2` [Example 3025, (R)-2-((5-chloro-2-((5-cyanopyridin-3-yl)methoxy)-4-((3-(2,3-dihydrobenzo[b][1,4]dioxin-6-yl)-2-methylbenzyl)oxy)benzyl)amino)succinic acid]: the IC50 is 0.0006 to 0.01 µM.

With `CC(=O)NCCNCc1ccc(OCc2cccc(-c3ccccc3)c2C)cc1OCc1cccc(Oc2ccc(F)cc2)c1` [Example 1078, N-(2-((2-((3-(4-fluorophenoxyl)benzyl)oxy)-4-((2-methyl-[1,1′-biphenyl]-3-yl)methoxy)benzyl)amino)ethyl)acetamide], the half-inhibitory concentration (IC50) lay within 0.1 to 20 µM.

In the case of `CC(=O)Nc1cc(COc2cc(OCc3cccc(-c4ccc5c(c4)OCCO5)c3C)c(Cl)cc2C=O)ccn1` [Example 3010, N-(4-((4-chloro-5-((3-(2,3-dihydrobenzo[b][1,4]dioxin-6-yl)-2-methylbenzyl)oxy)-2-formylphenoxy)methyl)pyridin-2-yl)acetamide], the IC50 lay within 0.1 to 20 µM.

Consider `Cc1c(COc2cc(OCc3cccc(C#N)c3)c(CNCCO)cc2Cl)cccc1-c1ccc2c(c1)OCCO2` [Example 1170, 3-((4-chloro-5-((3-(2,3-dihydrobenzo[b][1,4]dioxin-6-yl)-2-methylbenzyl)oxy)-2-(((2-hydroxyethyl)amino)methyl)phenoxy)methyl)benzonitrile], for which the 50% inhibitory concentration (IC50) lay in the range of 0.0006 to 0.01 µM.

Turning to `Cc1c(COc2cc(OCc3cccc(C#N)c3)c(CN(Cc3ccccc3)[C@@H](CO)C(=O)O)cc2Cl)cccc1-c1ccc2c(c1)OCCO2` [Example 1171, (S)-2-(benzyl(5-chloro-2-((3-cyanobenzyl)oxy)-4-((3-(2,3-dihydrobenzo[b][1,4]dioxin-6-yl)-2-methylbenzyl)oxy)benzyl)amino)-3-hydroxypropanoic acid], the IC50 lay within 0.01 to 0.1 µM.

Consider `C[C@](CO)(NCc1cc(Cl)c(OCc2cccc(-c3ccc4c(c3)OCCO4)c2C#N)cc1OCc1cccc(C#N)c1)C(=O)O` [Example 1241, (R)-2-((5-chloro-4-((2-cyano-3-(2,3-dihydrobenzo[b][1,4]dioxin-6-yl)benzyl)oxy)-2-((3-cyanobenzyl)oxy)benzyl)amino)-3-hydroxy-2-methylpropanoic acid], for which the half-maximal inhibitory concentration (IC50) was in the range of 0.0006 to 0.01 µM.

As for `Cc1c(COc2cc(OCc3cccc(C#N)c3)c(CN[C@@H](Cc3cncn3C)C(=O)O)cc2Cl)cccc1-c1ccc2c(c1)OCCO2` [Example 1207, (S)-2-((5-chloro-2-((3-cyanobenzyl)oxy)-4-((3-(2,3-dihydrobenzo[b][1,4]dioxin-6-yl)-2-methylbenzyl)oxy)benzyl)amino)-3-(1-methyl-1H-imidazol-5-yl)propanoic acid], the IC50 was in the range of 0.01 to 0.1 µM.

For `C=Cc1cc(CN2CCCC[C@H]2C(=O)O)c(OCc2cccc(C#N)c2)cc1OCc1cccc(-c2ccc3c(c2)OCCO3)c1C` [Example 1293, (S)-1-(2-(3-cyanobenzyloxy)-4-(3-(2,3-dihydrobenzo[b][1,4]dioxin-6-yl) -2-methylbenzyloxy)-5-vinylbenzyl)piperidine-2-carboxylic acid], the half-maximal inhibitory concentration (IC50) lay within 0.0006 to 0.01 µM.

For the compound `Cc1c(COc2ccc(CN[C@@H](CO)C(=O)O)c(OCc3cccc(C#N)c3)c2)cccc1-c1ccccc1` [Example 1018, (S)-2-((2-((3-cyanobenzyl)oxy)-4-((2-methyl-[1,1′-biphenyl]-3-yl)methoxy)benzyl)amino)-3-hydroxypropanoic acid], the IC50 was 0.0006 to 0.01 µM.

With `Cc1c(COc2cc(OCc3cccc(C#N)c3)c(CN[C@](C)(CO)C(=O)O)cc2Br)cccc1-c1ccc2c(c1)OCCO2` [Example 1303, (R)-2-((5-bromo-2-((3-cyanobenzyl)oxy)-4-((3-(2,3-dihydrobenzo[b][1,4]dioxin-6-yl)-2-methylbenzyl)oxy)benzyl)amino)-3-hydroxy-2-methylpropanoic acid], the IC50 was 0.0006 to 0.01 µM.

With `N#Cc1cccc(COc2cc(OCc3cccc(-c4ccc5c(c4)OCCO5)c3C#N)c(Br)cc2CN[C@@H](CO)C(=O)O)c1` [Example 1312, (S)-2-((5-bromo-4-((2-cyano-3-(2,3-dihydrobenzo[b][1,4]dioxin-6-yl)benzyl)oxy)-2-((3-cyanobenzyl)oxy)benzyl)amino)-3-hydroxypropanoic acid], the IC50 is 0.0006 to 0.01 µM.

Turning to `COc1cc(COc2cc(OCc3cccc(-c4ccccc4)c3C)ccc2CNCCNC(C)=O)cc(OC)c1` [Example 1107], the IC50 lay within 0.1 to 20 µM.

Turning to `Cc1c(COc2ccc(CN[C@@](C)(CO)C(=O)O)c(OCc3cccc(C#N)c3)c2)cccc1-c1ccccc1` [Example 1019, (S)-2-((2-((3-cyanobenzyl)oxy)-4-((2-methyl-[1,1′-biphenyl]-3-yl)methoxy)benzyl)amino)-3-hydroxy-2-methylpropanoic acid], the IC50 lay within 0.0006 to 0.01 µM.

Regarding `Cc1c(COc2cc(OCc3cncc(C#N)c3)c(CN3CCCC[C@H]3C(=O)NS(C)(=O)=O)cc2Cl)cccc1-c1ccc2c(c1)OCCO2` [Example 1256, (S)-1-(5-chloro-2-((5-cyanopyridin-3-yl)methoxy)-4-((3-(2,3-dihydrobenzo[b][1,4]dioxin-6-yl)-2-methylbenzyl)oxy)benzyl)-N-(methylsulfonyl)piperidine-2-carboxamide], the IC50 was 0.0006 to 0.01 µM.

Regarding `Cc1c(COc2ccc(CNC(CO)(C(=O)O)C(C)C)c(OCc3cccc(C#N)c3)c2)cccc1-c1ccccc1` (stereo not shown) [Example 1020, 2-((2-((3-cyanobenzyl)oxy)-4-((2-methyl-[1,1′-biphenyl]-3-yl)methoxy)benzyl)amino)-2-(hydroxymethyl)-3-methylbutanoic acid], the IC50 was in the range of 0.01 to 0.1 µM.
